# Experimental data from patent US5168100A, “HP530 compounds and process for preparing the same” (Sapporo Breweries Limited, priority 1990, dated 1992).
# How the values were obtained:
# [1] = test system: Staphylococcus epidermidis JCM2414; assay: Antimicrobial activity (MIC), Staphylococcus epidermidis; format: cell-based
# Excerpt: (§1) The minimum inhibitory concentrations (MIC's) of the HP530 compounds and their derivatives of the invention against bacteria and fungi are shown in Table 2.
# Candida albicans JCM1542 = assay: Antimicrobial activity (MIC), Candida albicans; format: cell-based
# Excerpt: as §1
# [2] = test system: Bacillus subtilis H17Rec^+; assay: Antimicrobial activity (MIC), Bacillus subtilis H17Rec^+; format: cell-based
# Excerpt: as §1
# CDF1 mice = assay: Acute toxicity in CDF1 mice; format: in vivo, mouse; conditions: intraperitoneal, three CDF1 mice
# [3] = test system: Staphylococcus aureus JCM2151; assay: Antimicrobial activity (MIC), Staphylococcus aureus; format: cell-based
# Excerpt: as §1
# Proteus vulgaris JCM1668 = assay: Antimicrobial activity (MIC), Proteus vulgaris; format: cell-based
# Excerpt: as §1
# [4] = test system: mouse fibrosarcoma Meth-A cell line; assay: Antitumor activity, increase in life span of CDF1 mice inoculated with Meth-A cells; format: in vivo; conditions: day 1-4
# Excerpt: 1) CDF1 mice were inoculated intraperitoneally with 1×10^6 cells of mouse fibrosarcoma Meth-A cell line on day 0. HP530 compounds and their derivatives dissolved in a physiological salt solution were administrated intraperitoneally once a day on day 1-4. Increase in life span is represented by the percentage of the ratio of the mean number of surviving days (T) of the treated groups of mice to the mean number of surviving days (C) of the untreated groups of mice.
# [5] = test system: Klebsiella pneumoniae JCM1662; assay: Antimicrobial activity (MIC), Klebsiella pneumoniae; format: cell-based
# Excerpt: as §1
# [6] = test system: Salmonella typhimurium TA1535; assay: Antimicrobial activity (MIC), Salmonella typhimurium; format: cell-based; conditions: Salmonella enterica
# Excerpt: as §1
# [7] = test system: Saccharomyces cerevisiae JCM1499; assay: Antimicrobial activity (MIC), Saccharomyces cerevisiae; format: cell-based
# Excerpt: as §1
# [8] = test system: Micrococcus luteus JCM1464; assay: Antimicrobial activity (MIC), Micrococcus luteus; format: cell-based
# Excerpt: as §1
# W98 cell line = assay: Cytotoxicity (IC100) against W98 cell line; format: cell-based; conditions: Homo sapiens; W98 cells, final 10% methanol solutions; read-out: IC100 (100% growth inhibiting concentration)
# Method: 2) Cytotoxicity (IC100) against W98 cell line obtained by converting the lung cells of a human emryo by an SV40 virus was examined in the following way. When the HP530 compounds and their derivatives dissolved in methanol were added to culture solutions in such a manner that the culture solutions were prepared final 10% methanol solutions, the cytotoxicity of the HP530 compounds and their derivatives against the growth of the W98 cells in the culture solution was measured as 100% growth inhibiting concentration (IC100).
# Escherichia coli JCM1649 = assay: Antimicrobial activity (MIC), Escherichia coli; format: cell-based
# Excerpt: as §1
# [9] = test system: Bacillus subtilis M45Rec^-; assay: Antimicrobial activity (MIC), Bacillus subtilis M45Rec^-; format: cell-based
# Excerpt: as §1
# [10] = test system: Xanthomonas maltophilia JCM1975; assay: Antimicrobial activity (MIC), Xanthomonas maltophilia; format: cell-based; conditions: Stenotrophomonas maltophilia
# Excerpt: as §1
# [11] = ethyl acetate, acetone, n-hexane
# [12] = solvents in which soluble (acidic water, organic solvents)
Compound,MIC [1],MIC (Candida albicans JCM1542),MIC [2],Solubility (Solubility; [11]),Solubility (Solubility; [12]),Solubility (Solubility; water),Acute toxicity (CDF1 mice; 20 mg/kg),MIC [3],MIC (Proteus vulgaris JCM1668),MIC [5],MIC [6],MIC [7],MIC [8],IC100 (W98 cell line),MIC (Escherichia coli JCM1649),MIC [9],MIC [10],Antitumor Activity T/C ([4]; 2.5 mg/kg i.p. once a day),Antitumor Activity T/C ([4]; 5.0 mg/kg i.p. once a day),Antitumor Activity T/C ([4]; 10.0 mg/kg i.p. once a day),further results
CC=CC1OC1(C)c1cc(=O)c2c(C)cc3c(c2o1)C(=O)c1c(ccc(C2CC(C)(N(C)C)C(O)C(C)O2)c1O)C3=O (stereo not drawn) [Deacetyl HP530D],6.3 µg/mL,> 100 µg/mL,12.5 µg/mL,"hardly soluble in ethyl acetate, acetone and n-hexane","Soluble in acidic water, methanol, chloroform and benzene",insoluble in water,no toxicity,1.6 µg/mL,> 100 µg/mL,> 100 µg/mL,3.2 µg/mL,50 µg/mL,1.6 µg/mL,0.00015 µg/mL,> 100 µg/mL,0.4 µg/mL,50 µg/mL,,,,Antitumor Activity T/C ([4]; 0.25 mg/kg i.p. once a day): 92%; Antitumor Activity T/C ([4]; 0.5 mg/kg i.p. once a day): 108%; Antitumor Activity T/C ([4]; 1.0 mg/kg i.p. once a day): 123%; Antitumor Activity T/C ([4]; 2.0 mg/kg i.p. once a day): 185%
Cc1cc2c(c3oc(C4(C)OC4C)cc(=O)c13)C(=O)c1c(ccc(C3CC(C)(N(C)C)C(O)C(C)O3)c1O)C2=O (stereo not drawn) [Deacetyl HP530E],6.3 µg/mL,> 100 µg/mL,6.3 µg/mL,"hardly soluble in ethyl acetate, acetone and n-hexane","Soluble in acidic water, methanol, chloroform and benzene",insoluble in water,,3.2 µg/mL,> 100 µg/mL,> 100 µg/mL,0.4 µg/mL,> 100 µg/mL,0.4 µg/mL,0.00015 µg/mL,> 100 µg/mL,0.2 µg/mL,25 µg/mL,183%,> 187%,83%,Acute toxicity (CDF1 mice; 5 mg/kg): no toxicity; Antitumor Activity T/C ([4]; 1.25 mg/kg i.p. once a day): 107%
CC=CC1OC1(C)c1cc(=O)c2c(C)cc3c(c2o1)C(=O)c1c(ccc(C2CC(C)(N(C)C)C(OC(C)=O)C(C)O2)c1O)C3=O (stereo not drawn) [HP530D],3.2 µg/mL,100 µg/mL,3.2 µg/mL,"hardly soluble in ethyl acetate, acetone and n-hexane","Soluble in acidic water, methanol and chloroform",insoluble in water,,1.6 µg/mL,> 100 µg/mL,> 100 µg/mL,1.6 µg/mL,6.3 µg/mL,1.6 µg/mL,0.0006 µg/mL,> 100 µg/mL,0.4 µg/mL,3.2 µg/mL,,,,Acute toxicity (CDF1 mice; 10 mg/kg): no toxicity; Antitumor Activity T/C ([4]; 0.25 mg/kg i.p. once a day): 108%; Antitumor Activity T/C ([4]; 0.5 mg/kg i.p. once a day): 123%; Antitumor Activity T/C ([4]; 1.0 mg/kg i.p. once a day): 192%; Antitumor Activity T/C ([4]; 2.0 mg/kg i.p. once a day): > 215%
CC(=O)OC1C(C)OC(c2ccc3c(c2O)C(=O)c2c(cc(C)c4c(=O)cc(C5(C)OC5C)oc24)C3=O)CC1(C)N(C)C (stereo not drawn) [HP530E],> 100 µg/mL,> 100 µg/mL,12.5 µg/mL,"hardly soluble in ethyl acetate, acetone and n-hexane","Soluble in acidic water, methanol, chloroform and benzene",insoluble in water,no toxicity,6.3 µg/mL,> 100 µg/mL,> 100 µg/mL,0.8 µg/mL,> 100 µg/mL,0.8 µg/mL,0.0006 µg/mL,> 100 µg/mL,0.2 µg/mL,> 100 µg/mL,104%,127%,> 196%,Antitumor Activity T/C ([4]; 20.0 mg/kg i.p. once a day): > 192%
CC=C(C)c1cc(=O)c2c(C)cc3c(c2o1)C(=O)c1c(ccc(C2CC(C)(N(C)C)C(OC(C)=O)C(C)O2)c1O)C3=O (stereo not drawn) [HP530G],25 µg/mL,> 100 µg/mL,100 µg/mL,"hardly soluble in ethyl acetate, acetone and n-hexane","Soluble in acidic water, methanol, chloroform and benzene",insoluble in water,no toxicity,50 µg/mL,> 100 µg/mL,> 100 µg/mL,100 µg/mL,> 100 µg/mL,12.5 µg/mL,0.1 µg/mL,> 100 µg/mL,3.2 µg/mL,> 100 µg/mL,112%,123%,115%,Antitumor Activity T/C ([4]; 20.0 mg/kg i.p. once a day): 123%
